The values that follow are results of earlier work, collected in patent publication US6991777B2, “Methods for in vivo evaluation of physiological conditions and/or organ or system function including methods to evaluate cardiopulmonary disorders such as chronic heart failure using polarized 129 Xe” (Medi-Physics, Inc., priority 2001, dated 2006).

The conditions of series [1]: dogs, whole lung.
The conditions of series [2]: after inhalation into the lungs.

For the compound `[Xe]` [polarized ^129Xe, Xenon-129], the “diffusion constant of xenon in water” value is listed as “about 2×10^−5 cm^2/s”. In series [1] (blood compartment), the “time constant τ (uptake and/or dissolved gas-exchange transit time), blood compartment” value was about 70 ms. Moreover, in series [1] (tissue compartment), the “time constant τ (uptake and/or dissolved gas-exchange transit time), tissue compartment” value is on record as “about 61 ms”. Besides, in series [2], the “fraction of inhaled gas that transits into the pulmonary blood” value is recorded as “roughly 0.3 % per/second” and the “time until Xe begins to dissolve into the pulmonary blood stream” value was “under 100 ms”.
